Laboratory results: patent publication US8273761B2, “Tricyclic compound and medical use thereof” (Takeda Pharmaceutical Company Limited, priority 2006, dated 2012)
pIC50: −log10 of the molar value.

Key:
[1] = target: T1, human melatonin 1 receptors (human MT1 receptors) (Homo sapiens, UniProt P48039); assay: Melatonin receptor binding inhibitory test (MT1); conditions: 2-[125I] Iodomelatonin 400 pM solution, membrane fraction of CHO-hMelR7 cells, 25° C. for 2.5 hr
T1 construct: expressed in transfected cells
T1 sequence (P48039 whole entry): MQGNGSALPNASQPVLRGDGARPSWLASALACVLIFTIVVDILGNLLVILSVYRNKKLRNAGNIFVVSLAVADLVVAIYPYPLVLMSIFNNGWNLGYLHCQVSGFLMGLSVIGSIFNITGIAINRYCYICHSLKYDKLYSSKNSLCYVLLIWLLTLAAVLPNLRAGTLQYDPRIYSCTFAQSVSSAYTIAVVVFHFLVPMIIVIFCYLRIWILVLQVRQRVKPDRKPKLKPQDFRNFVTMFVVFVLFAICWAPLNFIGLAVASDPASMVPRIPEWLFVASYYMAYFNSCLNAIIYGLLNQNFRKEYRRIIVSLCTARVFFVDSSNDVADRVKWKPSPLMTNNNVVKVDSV
Experimental: Biochim Biophys Acta. Vol. 1219(2), pp. 251-259, 1994) to give plasmid pAKKO-hMelR7 for animal cell expression. CHO/dhfr-cells (ATCC, #CRL-9096) were plated at a concentration of 0.3×10^6 cells/dish in a 6 cm culture dish (Becton Dickinson), and cultured under the conditions of 37° C., 5% CO2 for 48 hr. The cells were transfected with pAKKO-hMelR7 plasmid DNA (5 μg) using […] Transfection Kit (Amersham, #27-9268-01). The transfected cells were cultured in Dulbecco's modified Eagle medium (DMEM) (Sigma, #D6046) containing 10% dialyzed FBS ([…]), 1× Non-Essential Amino Acid (Invitrogen, #11140-050) and 50 μg/mL Gentamycin (Invitrogen, #15750-060), and the cell line that stably expressed the plasmid gene was selected. By a receptor binding assay using 2-[^125I] […] (3) Preparation of Cellular Membrane Fraction of CHO Cell (CHO-hMelR7 and CHO-hMT2) Stably Expressing Human MT1 and MT2 Receptors CHO-hMelR7 and CHO-hMT2 cells were plated using Cellfactory (Nunc, #170009) under the conditions of 1×10^8 cells/2000 mL/flask. The cells were grown to confluent, and recovered by the following method. As the medium for CHO-hMelR7 and CHO-hMT2, MEM α containing 10% FBS and penicillin/streptomycin was used. 300 ng/mL of geneticin was added to the medium for CHO-hMT2. The medium was discarded, cells were washed twice with 200 mL of EDTA/PBS(-), 200 mL of EDTA/PBS(-) was further added, and the cells were stood still at room temperature for 20 min until they were released. The cells were recovered in four 50 mL tubes (Becton Dickinson, #352070), and centrifuged at 1,500 rpm for 10 min at 4° C. using a low speed cooling centrifuge (Hitachi, CF7D2). The supernatant was discarded, the pellets in the four tubes were suspended in 10 mL of PBS(-), and combined in one tube (Becton Dickinson, #352070). The mixture was further centrifuged at 1,500 rpm for 10 min at 4° C., and the obtained pellets were suspended in 20 mL of ice-cooled homogenizing buffer [10 mM NaHCO3, 5 mM EDTA, Protease inhibitor Complete (Roche), pH 7.4]. The cell suspension was homogenized 3 times using a polytron homogenizer at 20,000 rpm for 30 sec. The obtained homogenate was centrifuged (2,000 rpm, 10 min, 4° C.) using a low speed cooling centrifuge. The supernatant was recovered in an ultracentrifugation tube and ultracentrifuged (40,000 rpm, 60 min, 4° C.) using an ultracentrifuge (Beckman, […]). To the obtained pellets was added a suspending buffer [50 mM Tris-HCl, 1 mM EDTA, Protease inhibitor Complete (Roche), pH 7.4], and the pellets were suspended by pipetting. The protein concentration of this suspension was measured, diluted to 2 mg/mL to give cellular membrane fractions of CHO-hMelR7 and CHO-hMT2 cells. […] Protein was quantified using BCA protein assay kit (Pierce) with BSA as the standard. (4) Preparation of Membrane Fraction Suspension Immediately before use, the membrane fractions of CHO-hMelR7 and CHO-hMT2 cells of the above-mentioned (3) were diluted 20-fold with assay buffer (50 mM Tris-HCl, pH 7.7). (5) Preparation of 2-[^125I] […] (6) Binding Reaction The assay buffer (80 μL) of the above-mentioned (4) was added to each well of a 96-well plate (type 3363, Corning). […] (7) Measurement Using a cell harvester (PerkinElmer), the binding reaction mixture in each well of the 96-well plate was transferred to a treated (immersed in 50 mM Tris, pH 7.7 in advance) filter plate (UniFilter GF/C, PerkinElmer) and filtered. After filtration, the plate was washed 4 times with the assay buffer, and dried in a dryer (42° C.) for 2 hr or more. 25 μL of a liquid scintillator (MicroScint O, PerkinElmer) was added to each well of the filter plate after drying, and the luminescence of scintillator was measured by TopCount (PerkinElmer) for 1 min. Specific binding is a value obtained by subtracting nonspecific binding from the total binding.

| SMILES | melting point [°C] | pIC50 [1] |
| --- | --- | --- |
| CCC(=O)NCCC1=CCc2cnc3c(c21)CCO3 [Example 29, N-[2-(1,6-dihydro-2H-cyclopenta[d]furo[2,3-b]pyridin-8-yl)ethyl]propanamide] | 111 to 112 | ≥ 7.00 |
| CC(=O)NCCc1cnn2ccc3c(c12)CCO3 [Example 3, N-[2-(8,9-dihydrofuro[3,2-c]pyrazolo[1,5-a]pyridin-1-yl)ethyl]acetamide] | 174 to 175 | ≥ 7.00 |
| CCC(=O)NCCC1CCc2cnc3c(c21)CCO3 (stereo not shown) [Example 22, N-[2-(1,6,7,8-tetrahydro-2H-cyclopenta[d]furo[2,3-b]pyridin-8-yl)ethyl]propanamide] | – | ≥ 7.00 |
| CCCC(=O)NCCC1CCc2cnc3c(c21)CCO3 (stereo not shown) [Example 25, N-[2-(1,6,7,8-tetrahydro-2H-cyclopenta[d]furo[2,3-b]pyridin-8-yl)ethyl]butanamide] | – | ≥ 7.00 |
| CC(=O)NCCC1CCc2cnc3c(c21)CCO3 (single isomer, unassigned) [Example 20, optically active N-[2-(1,6,7,8-tetrahydro-2H-cyclopenta[d]furo[2,3-b]pyridin-8-yl)ethyl]acetamide] | – | ≥ 7.00 |
| CCC(=O)NCCC1CCc2cnc3c(c21)CCO3 (single isomer, unassigned) [Example 23, optically active N-[2-(1,6,7,8-tetrahydro-2H-cyclopenta[d]furo[2,3-b]pyridin-8-yl)ethyl]propanamide] | – | ≥ 7.00 |
| CCC(=O)NCCc1c(-c2ccc(F)cc2)nn2ccc3c(c12)CCO3 [Example 16, N-{2-[2-(4-fluorophenyl)-8,9-dihydrofuro[3,2-c]pyrazolo[1,5-a]pyridin-1-yl]ethyl}propanamide] | 170 to 171 | ≥ 7.00 |
| CCC(=O)NCCc1c(-c2ccccc2)nn2ccc3c(c12)CCO3 [Example 8, N-[2-(2-phenyl-8,9-dihydrofuro[3,2-c]pyrazolo[1,5-a]pyridin-1-yl)ethyl]propanamide] | 169 to 170 | ≥ 7.00 |
| CC(=O)NCCC1=C(C(C)C)Cc2cnc3c(c21)CCO3 [Example 30, N-[2-(7-isopropyl-1,6-dihydro-2H-cyclopenta[d]furo[2,3-b]pyridin-8-yl)ethyl]acetamide] | 164 to 166 | ≥ 7.00 |
| CCC(=O)NCC(C)c1c(CC)nn2ccc3c(c12)CCO3 (stereo not shown) [Example 38, N-[2-(2-ethyl-8,9-dihydrofuro[3,2-c]pyrazolo[1,5-a]pyridin-1-yl)propyl]propanamide] | 173 to 175 | ≥ 7.00 |
| CCCC(=O)NCCc1cnn2ccc3c(c12)CCO3 [Example 5, N-[2-(8,9-dihydrofuro[3,2-c]pyrazolo[1,5-a]pyridin-1-yl)ethyl]butanamide] | 58 to 59 | ≥ 7.00 |
| CC(=O)NCCc1c(-c2ccc(F)cc2)nn2ccc3c(c12)CCO3 [Example 15, N-{2-[2-(4-fluorophenyl)-8,9-dihydrofuro[3,2-c]pyrazolo[1,5-a]pyridin-1-yl]ethyl}acetamide] | 160 to 162 | ≥ 7.00 |
| CCC(=O)NCCC1=C(C(C)C)Cc2cnc3c(c21)CCO3 [Example 31, N-[2-(7-isopropyl-1,6-dihydro-2H-cyclopenta[d]furo[2,3-b]pyridin-8-yl)ethyl]propanamide] | 168 to 170 | ≥ 7.00 |
| CCc1nn2ccc3c(c2c1C(C)CNC(C)=O)CCO3 (stereo not shown) [Example 37, N-[2-(2-ethyl-8,9-dihydrofuro[3,2-c]pyrazolo[1,5-a]pyridin-1-yl)propyl]acetamide] | 151 to 153 | ≥ 7.00 |
| CC(=O)NCCc1c(-c2ccccc2)cn2ccc3c(c12)CCO3 [Example 17, N-[2-(8-phenyl-1,2-dihydrofuro[2,3-g]indolizin-9-yl)ethyl]acetamide] | – | ≥ 7.00 |
| CCc1nn2ccc3oc(C)cc3c2c1CCNC(C)=O [Example 39, N-[2-(2-ethyl-8-methylfuro[3,2-c]pyrazolo[1,5-a]pyridin-1-yl)ethyl]acetamide] | 128 to 129 | ≥ 7.00 |
| CCC(=O)NCCc1cnn2ccc3c(c12)CCO3 [Example 4, N-[2-(8,9-dihydrofuro[3,2-c]pyrazolo[1,5-a]pyridin-1-yl)ethyl]propanamide] | 96 to 97 | ≥ 7.00 |
| CCC(=O)NCCc1c(-c2ccccc2)nn2ccc3occc3c12 [Example 2, N-[2-(2-phenylfuro[3,2-c]pyrazolo[1,5-a]pyridin-1-yl)ethyl]propanamide] | 161 to 163 | ≥ 7.00 |
